For data set [1] the following is noted: cited from earlier work.
Data set [2] is described as follows: AUC and Cmax target safe levels of CYP3A4 substrate drugs (Table 1). An excerpt: In various embodiments, the “Target safe levels” are non-limiting examples of the upper limit of fold change or percent of baseline where in some embodiments the benefits of treating the patient for the condition or disease for which the CYP3A4 substrate drug is indicated outweigh the risks associated with the effects of a drug-drug interaction. […] For purposes of the present methods, the blood plasma levels measured during co-administration of the CYP3A4 substrate drug with […] may be used to estimate the posaconazole DDI decay curve, e.g., using equation 1.

The target of data set [3] is CYP3A4 (Homo sapiens, UniProt P08684). The following applies: cited from earlier work.
Sequence of CYP3A4 (P08684 whole entry, the tested form may be a part): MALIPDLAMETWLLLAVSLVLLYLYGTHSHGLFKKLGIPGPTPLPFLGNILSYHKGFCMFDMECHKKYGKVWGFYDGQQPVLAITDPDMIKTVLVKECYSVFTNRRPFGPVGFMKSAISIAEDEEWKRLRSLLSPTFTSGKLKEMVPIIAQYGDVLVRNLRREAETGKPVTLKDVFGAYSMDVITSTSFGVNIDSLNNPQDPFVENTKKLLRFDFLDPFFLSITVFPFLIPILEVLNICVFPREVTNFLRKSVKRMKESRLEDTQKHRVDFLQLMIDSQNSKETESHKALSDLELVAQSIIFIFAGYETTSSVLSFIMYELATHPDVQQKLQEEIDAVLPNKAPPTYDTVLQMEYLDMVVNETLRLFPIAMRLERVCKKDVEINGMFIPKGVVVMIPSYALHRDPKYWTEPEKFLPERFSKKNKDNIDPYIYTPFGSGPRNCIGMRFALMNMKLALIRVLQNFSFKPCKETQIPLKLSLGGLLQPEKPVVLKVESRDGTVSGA
[4] abbreviates: single 90 min infusion of irinotecan 125 mg/m^2, AUC0-24.
Where [5] appears, read: single 90 min infusion of irinotecan 125 mg/m^2.
Where [6] appears, read: single 90 min infusion of irinotecan 340 mg/m^2, AUC0-24.
Where [7] appears, read: single 90 min infusion of irinotecan 340 mg/m^2.
Where [8] appears, read: upper limit where benefits outweigh risks, approximation, can vary by about ±25%.
Where [9] appears, read: co-administered with a strong CYP3A4 inhibitor (posaconazole, itraconazole, ritonavir, or ketoconazole).

Molecules are shown by their SMILES. Where two headings read alike, the source gives them in different places.

With `COc1cc(Nc2ncc(F)c(Nc3ccc4c(n3)NC(=O)C(C)(C)O4)n2)cc(OC)c1OC` [R406], in data set [1] (in vivo), the “Baseline AUC (% CV)” value is listed as 7080 (±2670) ng*h/mL and the “Baseline Cmax (% CV)” value is 550 (±270) ng/ml.
For `CCc1c2c(nc3ccc(O)cc13)-c1cc3c(c(=O)n1C2)COC(=O)[C@]3(O)CC` [SN-38], the “Baseline AUC (% CV)” value is 229 ± 108 ng·h/mL in data set [1] (setting [4]) and 474 ± 245 ng·h/mL in data set [1] (setting [6]). In addition, the “Baseline Cmax (% CV)” value in data set [1] (setting [5]) was 26.3 ± 11.9 ng/mL; in data set [1] (setting [7]), 56.0 ± 28.2 ng/mL.
Consider `CCN1CCN(Cc2ccc(Nc3ncc(F)c(-c4cc(F)c5nc(C)n(C(C)C)c5c4)n3)nc2)CC1` [abemaciclib], for which, in data set [2] (human), the “AUC target safe level, Fold change” value is given as 1.3 fold and the “AUC target safe level, Percent of baseline” value is given as 130%. Further, in data set [3] (in vivo), the “AUC co-administration levels, Fold change” value was 16 fold and the “AUC co-administration levels, Percent of baseline” value is recorded as 1600%.
As to `CC#CC(=O)N1CCC[C@H]1c1nc(-c2ccc(C(=O)Nc3ccccn3)cc2)c2c(N)nccn12` [acalabrutinib], in data set [2] (human), the “AUC target safe level, Fold change” value is 2.0 fold; the “AUC target safe level, Percent of baseline” value is 200%; the “Cmax target safe level, Fold change” value was 2.0 fold; the “Cmax target safe level, Percent of baseline” value worked out at 200%. Further, in data set [3] (in vivo), the “AUC co-administration levels, Fold change” value is 5.1 fold; the “AUC co-administration levels, Percent of baseline” value is 510%; the “Cmax co-administration levels, Fold change” value is reported as 3.9 fold; the “Cmax co-administration levels, Percent of baseline” value is recorded as 390%.
As for `CO[C@H]1C[C@@H]2CC[C@@H](C)[C@@](O)(O2)C(=O)C(=O)N2CCCC[C@H]2C(=O)O[C@H]([C@H](C)C[C@@H]2CC[C@@H](OCCO)[C@H](OC)C2)CC(=O)[C@H](C)/C=C(\C)[C@@H](O)[C@@H](OC)C(=O)[C@H](C)C[C@H](C)/C=C/C=C/C=C/1C` [everolimus], in data set [1] (10 mg everolimus), the “normal baseline AUC: mean AUC0-24±SD at steady state” value is on record as “about 536±7.7 ng*h/mL” and the “normal baseline Cmax: mean Cmax (% CV), steady state” value was 59.7±16.9 (21.7%) ng/mL.
In the case of `CCc1c2c(nc3ccc(OC(=O)N4CCC(N5CCCCC5)CC4)cc13)-c1cc3c(c(=O)n1C2)COC(=O)[C@]3(O)CC` [irinotecan], the “Baseline AUC (% CV)” value in data set [1] (setting [4]) is 10,200 ng*h/mL; in data set [1] (setting [6]), 20,604 ng*h/mL. Further, the “Baseline Cmax (% CV)” value in data set [1] (setting [5]) is listed as 1,660 ± 797 ng/ml; in data set [1] (setting [7]) it was 3,392 ± 874 ng/ml.
With `COc1cc2c(cc1OC)CC(=O)N(CCCN(C)C[C@H]1Cc3cc(OC)c(OC)cc31)CC2` [ivabradine], in data set [2] (human), the “AUC target safe level, Fold change” value is 2.1 fold; the “AUC target safe level, Percent of baseline” value stood at 210%; the “Cmax target safe level, Fold change” value is 1.6 fold; the “Cmax target safe level, Percent of baseline” value worked out at 160%. Also, in data set [3] (in vivo), the “AUC co-administration levels, Fold change” value is given as 7 fold; the “AUC co-administration levels, Percent of baseline” value is 700%; the “Cmax co-administration levels, Fold change” value is recorded as 3.25 fold; the “Cmax co-administration levels, Percent of baseline” value is reported as 325%.
For the molecule `N#Cc1ccnc(N2C(=O)CC[C@H]2C(=O)N(c2cncc(F)c2)[C@H](C(=O)NC2CC(F)(F)C2)c2ccccc2Cl)c1` [ivosidenib], in data set [2] (human), the “AUC target safe level, Fold change” value is 1.73 fold; the “AUC target safe level, Percent of baseline” value stood at 173%; the “Cmax target safe level, Fold change” value is given as 1.52 fold; the “Cmax target safe level, Percent of baseline” value was 152%. Further, in data set [3] (in vivo), the “AUC co-administration levels, Fold change” value is on record as 2.69 fold and the “AUC co-administration levels, Percent of baseline” value is 269%.
For the molecule `C=CCN1CC[C@]23c4c5ccc(O)c4O[C@H]2[C@@H](OCCOCCOCCOCCOCCOCCOCCOC)CC[C@@]3(O)[C@H]1C5` [naloxegol], in data set [2] (setting [8]), the “AUC target safe level, Fold change” value stood at 3.41 fold; the “AUC target safe level, Percent of baseline” value turned out to be 341%; the “Cmax target safe level, Fold change” value is recorded as 2.86 fold; the “Cmax target safe level, Percent of baseline” value is on record as 286%. Further, in data set [3] (setting [9]), the “AUC co-administration levels, Fold change” value was 12.85 fold; the “AUC co-administration levels, Percent of baseline” value was 1285%; the “Cmax co-administration levels, Fold change” value is 9.58 fold; the “Cmax co-administration levels, Percent of baseline” value is on record as 958%.
With `CCOc1cc2ncc(C#N)c(Nc3ccc(OCc4ccccn4)c(Cl)c3)c2cc1NC(=O)/C=C/CN(C)C` [neratinib], the “Baseline AUC (% CV)” value in data set [1] (AUC0-24 single dose 180 mg) was 734 ± 291 ng·h/mL; in data set [1] (AUC0-24 single dose 240 mg), 823 ± 291 ng·h/mL; in data set [1] (AUC0-24 single dose 320 mg), 1582 ± 800 ng·h/mL. The “Baseline Cmax (% CV)” value was 65.9 ± 34.7 ng/mL in data set [1] (single dose 180 mg), 75.9 ± 12.9 ng/mL in data set [1] (single dose 240 mg) and 118 ± 47.6 ng/mL in data set [1] (single dose 320 mg). Also, in data set [3] (in vivo), the “AUC co-administration levels, Fold change” value is recorded as 5.81 fold. Also, the “AUC co-administration levels, Percent of baseline” value in data set [3] (in vivo) is reported as 581%. Also, the “Cmax co-administration levels, Fold change” value in data set [3] (in vivo) was 4.21 fold. Further, the “Cmax co-administration levels, Percent of baseline” value in data set [3] (in vivo) was 421%.
`O=C(NC[C@H]1CN(c2ccc(N3CCOCC3=O)cc2)C(=O)O1)c1ccc(Cl)s1` [rivaroxaban]: in data set [2] (human), the “AUC target safe level, Fold change” value was 1.52 fold; the “AUC target safe level, Percent of baseline” value is listed as 152%; the “Cmax target safe level, Percent of baseline” value turned out to be 0%. In data set [3] (in vivo), the “AUC co-administration levels, Fold change” value is listed as 1.76 fold; the “AUC co-administration levels, Percent of baseline” value is 176%; the “Cmax co-administration levels, Fold change” value is 1.56 fold; the “Cmax co-administration levels, Percent of baseline” value was 156%.
On to `CCc1cc(/C(C)=N/OCc2ccc(C3CCCCC3)c(C(F)(F)F)c2)ccc1CN1CC(C(=O)O)C1` [siponimod], for which, in data set [2] (human), the “AUC target safe level, Fold change” value turned out to be 10.4 fold and the “AUC target safe level, Percent of baseline” value stood at 1040%. For the same molecule, in data set [3] (in vivo), the “AUC co-administration levels, Fold change” value was 2 fold and the “AUC co-administration levels, Percent of baseline” value is reported as 200%.
Consider `O=C(O[C@H]1CN2CCC1CC2)N1CCc2ccccc2[C@@H]1c1ccccc1` [solifenacin succinate], for which the “normal baseline AUC: mean AUC0-24 (% CV) at steady state” value in data set [1] (in vivo, 5 mg) is given as “about 463 (37%) ng*h/mL”; in data set [1] (in vivo, 10 mg) it was “about 749 (22%) ng*h/mL”. Also, the “normal baseline Cmax: mean Cmax (% CV), steady state” value is given as 24.01 (30%) ng/mL in data set [1] (in vivo, 5 mg) and 40.61 (21%) ng/mL in data set [1] (in vivo, 10 mg).
Take `Cc1c(C(=O)Nc2ccc(N3C[C@@H](C)O[C@@H](C)C3)nc2)cccc1-c1ccc(OC(F)(F)F)cc1` [sonidegib]: the “Cmax target safe level, Percent of baseline” value in data set [2] (human) worked out at 0%. Further, in data set [3] (in vivo), the “AUC co-administration levels, Fold change” value is given as 2.2 fold; the “AUC co-administration levels, Percent of baseline” value is given as 220%; the “Cmax co-administration levels, Fold change” value was 1.5 fold; the “Cmax co-administration levels, Percent of baseline” value was 150%.
Take `CN1CC(=O)N2[C@H](c3ccc4c(c3)OCO4)c3[nH]c4ccccc4c3C[C@@H]2C1=O` [tadalafil]: in data set [1] (10 mg tadalafil), the “normal baseline AUC: mean AUC0-∞ (% CV)” value is given as “about 3647 (34.0%) μg*h/L” and the “normal baseline Cmax: mean Cmax (% CV)” value is recorded as 190 (21.7%) μg/L. The “normal baseline Cmax: mean Cmax (% CV)” value in data set [1] (20 mg tadalafil) is reported as 548 (24.0%) μg/L.
As for `COc1cc2c(cc1O)CCN[C@]21CS[C@@H]2c3c(OC(C)=O)c(C)c4c(c3[C@H](COC1=O)N1[C@@H]2[C@H]2c3c(cc(C)c(OC)c3O)C[C@@H]([C@@H]1O)N2C)OCO4` [trabectedin], in data set [1] (AUCinf one dose (24 hr infusion) at 600 ug/m^2), the “Baseline AUC (% CV)” value is reported as 12 (±4.8) ng*h/mL. The “Baseline AUC (% CV)” value in data set [1] (AUCinf one dose (24 hr infusion) at 900 ug/m^2) is 36 (±16) ng*h/mL. In data set [1] (AUCinf one dose (24 hr infusion) at 1200 ug/m^2), the “Baseline AUC (% CV)” value is 32 (±13) ng*h/mL. For the same molecule, the “Baseline AUC (% CV)” value in data set [1] (AUCinf one dose (24 hr infusion) at 1500 ug/m^2) was 55 (±25) ng*h/mL. Further, the “Baseline Cmax (% CV)” value in data set [1] (One dose (24 hr infusion) at 1500 ug/m^2) is 1.8 (±1.1) ng/ml. Also, in data set [3] (in vivo), the “AUC co-administration levels, Fold change” value is listed as 1.66 fold; the “AUC co-administration levels, Percent of baseline” value is 166%; the “Cmax co-administration levels, Fold change” value is reported as 1.22 fold; the “Cmax co-administration levels, Percent of baseline” value is 122%.
Take `CC[C@@H]1CN(C(=O)NCC(F)(F)F)C[C@@H]1c1cnc2cnc3[nH]ccc3n12` [upadacitinib]: the “Baseline AUC (% CV)” value is 103 ± 27.6 ng·h/mL in data set [1] (AUCinf single dose at 3 mg), 160 ± 37.6 ng·h/mL in data set [1] (AUCinf single dose at 6 mg), 331 ± 49.8 ng·h/mL in data set [1] (AUCinf single dose at 12 mg) and 615 ± 78.1 ng·h/mL in data set [1] (AUCinf single dose at 24 mg). Also, the “Baseline Cmax (% CV)” value in data set [1] (single dose at 6 mg) was 38.9 ± 9.96 ng/mL; in data set [1] (single dose at 12 mg), 82.9 ± 12.1 ng/mL.
For `CC1(C)CCC(CN2CCN(c3ccc(C(=O)NS(=O)(=O)c4ccc(NCC5CCOCC5)c([N+](=O)[O-])c4)c(Oc4cnc5[nH]ccc5c4)c3)CC2)=C(c2ccc(Cl)cc2)C1` [venetoclax], in data set [3] (in vivo), the “AUC co-administration levels, Fold change” value was 1.78 fold; the “AUC co-administration levels, Percent of baseline” value is 178%; the “Cmax co-administration levels, Fold change” value is recorded as 1.06 fold; the “Cmax co-administration levels, Percent of baseline” value was 106%.

(Values after patent US20230414607A1, “METHODS OF TREATMENT” (BOW RIVER LLC, priority 2017, published 2023).)
